Test results as given in patent US8217085B2 (priority 2009, dated 2012).
Like-named read-outs stand apart in the source and are kept apart here.

Assays:
[1] = system: ATCC strain 43300 Staphylococcus aureus; conditions: for average log reduction in cfu/ml: 48 hours; for Log reduction in cfu/ml: 120 hours
Experimental: This is the MIC for oxacillin and methicillin for this strain of bacteria.
USP<51> Antimicrobial Effectiveness protocol was used as the template experimental paradigm. […] All concentrations were plated out to the 10^−7 dilutionsto ascertain cfu/ml. […] This concentration is the industry standard for determining MRSA resistance in clinical applications.
Material was calculated on a 10 ml volume. Sterile oxacillin or methicillin was added to each experimental condition daily at 300 μl from a 30 mg/10 ml concentration giving it an initial final concentration of 6 μg/ml.
All tubes were inoculated with a dilution of MRSA giving a final level of colony forming units of 2.13×10^6/ml (Log=6.3). The tubes were incubated at 25° C. and mixed periodically. Plating was done at 24 hours, 48 hours and 5 days. Each condition was plated by diluting 1 ml of growth material into 9 ml of MLB diluent broth. This mixture was serial diluted down to 10^−7, and 1 ml placed in a sterile petri dish at each dilution point. 20 mls of TSA was added to each dilution, swirled and allowed to solidify. All dilutions were placed in a 35° C. incubator for 24 hours. Bacterial colonies on each plate were counted and colony counts changed into log format. A positive and negative control was ascertained.

[2] = system: ATCC strain 43300 Staphylococcus aureus; conditions: 24 hours
Experimental: All concentrations were plated out to the 10^−7 dilutions to ascertain cfu/ml.
ATCC strain 43300 Staphylococcus aureus was streaked out for isolations and 25 clones were picked and diluted to a McFarland standard of one. The estimated value was then taken to inoculate tubes containing growth media and 12, 30 or 60 μg/ml methicillin or oxacillin with around 10^−7 cfu/tube.
Material was calculated on a 10 ml volume. Sterile oxacillin or methicillin was added to each experimental condition to a final concentration of 12, 30 or 60 μg/ml antibiotic.
All tubes were then inoculated with a dilution of the selected ATCC strain 43300 Staphylococcus aureus clone giving a final level of colony forming units of 9.4×10^7/ml (log=7.97). The tubes were incubated at 25° C. and mixed periodically. […] Plating was done at 24 hours. Each condition was plated by diluting 1 ml of growth material into 9 ml of MLB diluent broth. This mixture was serial diluted down to 10^−7, and 1 ml placed in a sterile petri dish at each dilution point. 20 mls of TSA was added to each dilution, swirled and allowed to solidify. All dilutions were placed in a 35° C. incubator for 24 hours. Bacterial colonies on each plate were counted and colony counts changed into log format. A positive and negative control was ascertained.

[3] = room temperature; cited from earlier work
[4] = system: ATCC strain 43300 Staphylococcus aureus; format: cell-based

Structure (SMILES): CS(C)(=O)=O [MSM, methylsulfonylmethane]
- average log reduction in cfu/ml ([1]; initial 5% MSM, 6 μg/ml methicillin): 2.7 log
- average log reduction in cfu/ml ([1]; initial 8% MSM, 6 μg/ml oxacillin): 2.7 log
- Log reduction in cfu/ml ([1]; initial 13-16% MSM, 6 μg/ml methicillin): ~3.5 log
- Log reduction in cfu/ml ([1]; initial 14-16% MSM, 6 μg/ml oxacillin): ~3.3 log
- average log reduction in cfu/ml ([1]; initial 16% MSM, 6 μg/ml methicillin): 2.1 log
- average log reduction in cfu/ml ([1]; initial 16% MSM, 6 μg/ml oxacillin): 2.1 log
- average log reduction in cfu/ml ([2]; 5% MSM with antibiotic (12, 30 or 60 μg/ml oxacillin or methicillin)): 2.2 log
- average log reduction in cfu/ml ([2]; 16% MSM with antibiotic (barring methicillin 60 μg/ml outlier)): 3.3 log
- water solubility [3]: ≥ 20%
- recovery of MRSA after enrichment ([4]; 5% MSM, 60 μg/ml methicillin, 72 hours): true total kill
- recovery of MRSA after enrichment ([4]; 6% MSM, 12 μg/ml methicillin, 72 hours): true total kill
- recovery of MRSA after enrichment ([4]; 6% MSM, 60 μg/ml methicillin, 72 hours): true total kill
- recovery of MRSA after enrichment ([4]; 7% MSM, 12 μg/ml methicillin, 72 hours): true total kill
- recovery of MRSA after enrichment ([4]; 8% MSM, 12 μg/ml methicillin, 96 hours): true total kill
- recovery of MRSA after enrichment ([4]; 10% MSM, 30 μg/ml methicillin, 120 hours): true total kill
- recovery of MRSA after enrichment ([4]; 11% MSM, 30 μg/ml methicillin, 120 hours): true total kill
- recovery of MRSA after enrichment ([4]; 11% MSM, 60 μg/ml methicillin, 120 hours): true total kill
- recovery of MRSA after enrichment ([4]; 12% MSM, 30 μg/ml methicillin, 120 hours): true total kill
- recovery of MRSA after enrichment ([4]; 12% MSM, 60 μg/ml methicillin, 120 hours): true total kill
- recovery of MRSA after enrichment ([4]; 14% MSM, 60 μg/ml methicillin, 120 hours): true total kill
- recovery of MRSA after enrichment ([4]; 15% MSM, 60 μg/ml methicillin, 120 hours): true total kill
- recovery of MRSA after enrichment ([4]; 16% MSM, 30 μg/ml methicillin, 120 hours): true total kill
